Where two headings read alike, the source gives them in different places. Numbered stars: 1 amine (or outer) side, 2 acyl side, 3 side chain; on linkers, the order of the positions; unused ones are H or OH. Bridge positions count the residues as written; N and C are the ends. Square brackets hold non-standard residues; d marks the D form. Peptide text beside a SMILES is read from it. * marks the point of attachment. X17 = N=c1ccc2c(-c3ccc(C(=O)NCCC(=O)N4Cc5ccccc5-c5c(nnn5CCCCCC(=O)NCCCOCCOCCOCCCNC(=O)CCC(=O)NCCCOCCOCCOCCCN*)-c5ccccc54)cc3C(=O)O)c3ccc(N)c(S(=O)(=O)O)c3oc-2c1S(=O)(=O)O; X3 = O=C(O)CN1CCN(CC(=O)O)CCN(CC(=O)NCCCOCCOCCOCCCN*)CCN(CC(=O)O)CC1; X18 = O=C(O)c1cccc(CN2CCOCCOCCN(Cc3cc(N*)cc(C(=O)O)n3)CCOCCOCC2)n1; DOTA = O=C(O)CN1CCN(CC(=O)O)CCN(CC(=O)*)CCN(CC(=O)O)CC1; X20 = CN(CCC[C@H](N[*:1])C(=O)[*:2])C(=N)N; Phe(4-Cl) = N[C@@H](Cc1ccc(Cl)cc1)C(=O)O; Arg(Me) = CNC(=N)NCCC[C@H](N)C(=O)O; Glutaryl = O=C(CCCC(=O)[*:2])[*:1]; X1 = O=C(CC1CCN([*:1])CC1)[*:2]; Cit = NC(=O)NCCC[C@H](N)C(=O)O; Lys(Me) = CNCCCC[C@H](N)C(=O)O; Suc = O=C(CCC(=O)[*:2])[*:1]; Tle = CC(C)(C)[C@H](N)C(=O)O; Aib = CC(C)(N)C(=O)O
Columns and labels:
[1] = target: T1, Fc-fusion protein of human PSMA (hPSMA-Fc) (Homo sapiens, UniProt Q04609); test: Surface plasmon resonance assay (Biacore T200, single cycle kinetic); assay type: binding; settings: hPSMA-Fc, 25° C., read-out: pKD CAT (converted)
T1 construct: purchased Acro Biosystems PSA-H5264
Description: Surface plasmon resonance (SPR) studies were performed using a Biacore™ T200 SPR system. Briefly, polarized light is directed towards a gold-labeled sensor surface, and minimum intensity reflected light is detected. The angle of reflected light changes as molecules bind and dissociate.
Fc-fusion protein of human PSMA (hPSMA-Fc, Acro Biosystems, Cat #PSA-H5264) was captured on a Fc-capture chip (Biacore™ CM5 sensor chip coated with ˜300 RU of an Fc-binding peptide). hPSMA-Fc was diluted in Running Buffer (HBST, 0.1% DMSO) to a final concentration of 100 nM and then flushed over the Fc-capture chip to immobilized ˜1000 RUs.
Stock solutions of test compounds were prepared by dissolving each compound in DMSO. DMSO stock solution were diluted 1:1000 in Running Buffer without DMSO. Further sequential dilutions were made with Running Buffer containing 0.1% DMSO. SPR binding analyses were performed in Single Cycle Kinetic (SCK) mode at 25° C. Flow cell coated with the Fc-binding peptide only served as reference flowcell. After each SCK run, hPSMA-Fc was removed with 10 mM glycine buffer, pH 1.5.
In between every three SCK measurements, a blank run with Running Buffer instead of test compound was included to correct for baseline drifts (double blanking method).
Table 5 describes the protocol steps for Fc-fusion target capturing and assessment of the binding kinetics.
For each test compound, SPR raw data in the form of resonance units (RU) were plotted as sensorgrams using the Biacore™ T200 control software. The signal from the blank sensorgram was subtracted from that of the test compound sensorgram (blank corrected). The blank corrected sensorgram was corrected for baseline drift by subtracting the sensorgram of a SCK run without the test compound (running buffer only). The dissociation constant (KD) was calculated from Blank-normalized SPR data using the 1:1 Langmuir binding model from the Biacore™ Insight Evaluation software. The pKD value (negative decadic logarithm of dissociation constant) was calculated using Microsoft Excel.

[2] = target: T2, PSMA-expressing C4-2 cells (Homo sapiens, UniProt Q04609); test: FACS binding assay (competition with 50 nM PSM-0183); settings: C4-2 cells, read-out: pIC50 [C4-2] CAT (converted)
T2 construct: PSMA-expressing C4-2 cells (ATCC, Cat. No. CRL-3314) were cultured in RPMI-1640; host or cells: C4-2 cells
Description: In order to determine binding of compounds according to the present invention to PSMA-expressing cells, a FACS binding assay was established.
PSMA-expressing C4-2 cells (ATCC, Cat. No. CRL-3314) were cultured in RPMI-1640 (Pan Biotech, Cat. No. P04-18050) including 10% fetal calf serum (Biochrom) and 100 U/ml penicillin and 100 μg/mL streptomycin (Sigma, Cat. No. P0781). Cells were detached with Accutase (Biolegend, Cat. No. BLD-423201) and washed in FACS buffer (PBS (Sigma, Cat. No. D8537) including 1% fetal calf serum). Cells were diluted in FACS buffer to a final concentration of 500,000 cells per mL. 200 μL of the cell suspension were transferred to a u-shaped non-binding 96-well plate (Greiner Bio-One, Cat. No. 650901) and cells were washed in ice-cold FACS buffer.
For IC50 determination, C4-2 cells were incubated with 50 nM PSM-0183 (Ac-Thr-Aib-Phe[Cys-Lys-Arg-Aib-Asn-Cys]-Tle-Thr-Asp-Ttds-Ttds-AF488N3K-NH2) in the presence of increasing concentrations of test compounds at 4° C. for 1 hour. After two wash steps with ice-cold FACS buffer, cells were analyzed in an Attune NxT flow cytometer. Median fluorescence intensities (MFI) of the FITC/AF488-channel were calculated by Attune NxT software. MFI values were plotted against peptide concentration and four parameter logistic (4PL) curve fitting and IC50/pIC50 calculations were performed using ActivityBase software (IDBS).

T2 sequence (Q04609 whole entry): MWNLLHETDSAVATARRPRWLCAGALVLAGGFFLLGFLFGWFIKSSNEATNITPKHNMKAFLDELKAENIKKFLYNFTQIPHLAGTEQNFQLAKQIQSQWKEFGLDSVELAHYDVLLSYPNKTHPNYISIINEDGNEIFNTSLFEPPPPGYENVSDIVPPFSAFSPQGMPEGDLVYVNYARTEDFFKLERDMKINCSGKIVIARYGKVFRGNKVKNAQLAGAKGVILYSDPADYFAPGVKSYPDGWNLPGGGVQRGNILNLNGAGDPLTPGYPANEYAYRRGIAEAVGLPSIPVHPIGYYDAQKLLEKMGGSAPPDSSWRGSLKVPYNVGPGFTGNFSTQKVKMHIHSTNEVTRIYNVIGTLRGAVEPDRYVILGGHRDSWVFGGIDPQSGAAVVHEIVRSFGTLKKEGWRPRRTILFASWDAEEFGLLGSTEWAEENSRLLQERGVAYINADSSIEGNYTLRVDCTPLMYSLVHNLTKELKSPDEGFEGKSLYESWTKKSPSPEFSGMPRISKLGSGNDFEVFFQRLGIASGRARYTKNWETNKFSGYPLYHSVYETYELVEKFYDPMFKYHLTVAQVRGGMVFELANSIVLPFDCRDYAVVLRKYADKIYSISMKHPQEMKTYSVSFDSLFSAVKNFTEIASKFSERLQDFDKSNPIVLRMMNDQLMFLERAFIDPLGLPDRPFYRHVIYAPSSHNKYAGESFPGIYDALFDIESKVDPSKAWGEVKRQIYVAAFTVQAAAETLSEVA
T1 sequence (Q04609 44-750 limits assumed): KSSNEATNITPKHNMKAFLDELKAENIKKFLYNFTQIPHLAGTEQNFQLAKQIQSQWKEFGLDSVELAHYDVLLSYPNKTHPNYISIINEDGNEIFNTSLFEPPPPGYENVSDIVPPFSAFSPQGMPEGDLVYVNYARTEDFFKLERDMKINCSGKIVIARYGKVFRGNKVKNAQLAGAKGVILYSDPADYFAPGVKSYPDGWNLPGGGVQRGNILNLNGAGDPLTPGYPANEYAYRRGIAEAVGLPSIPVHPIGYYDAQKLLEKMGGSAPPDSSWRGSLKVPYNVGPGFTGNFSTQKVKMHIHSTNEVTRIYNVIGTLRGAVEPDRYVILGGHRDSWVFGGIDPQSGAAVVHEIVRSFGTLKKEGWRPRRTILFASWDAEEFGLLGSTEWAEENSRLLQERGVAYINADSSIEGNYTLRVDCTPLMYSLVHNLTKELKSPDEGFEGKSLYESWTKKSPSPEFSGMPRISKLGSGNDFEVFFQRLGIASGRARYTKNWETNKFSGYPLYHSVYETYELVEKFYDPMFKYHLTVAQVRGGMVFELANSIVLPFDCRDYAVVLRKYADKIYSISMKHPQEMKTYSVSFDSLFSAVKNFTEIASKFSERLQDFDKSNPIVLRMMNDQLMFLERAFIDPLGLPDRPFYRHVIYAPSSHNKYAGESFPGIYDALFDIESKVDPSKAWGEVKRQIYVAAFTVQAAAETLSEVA

With `CSCC[C@@H]1NC(=O)C(C)(C)NC(=O)[C@H](CCCNC(N)=O)NC(=O)[C@H](CCCCN)NC(=O)[C@@H](NC(=O)[C@H](Cc2ccc(Cl)cc2)NC(=O)C(C)(C)NC(=O)[C@@H](NC(C)=O)[C@@H](C)O)CSSC[C@@H](C(=O)N[C@H](C(=O)N[C@H](C(N)=O)[C@@H](C)O)C(C)(C)C)NC1=O` [PSM-0229, Ac-Thr-Aib-Pcf-[Cys-Lys-Arg-Aib-Met-Cys]-Tle-Thr-NH2] (Ac-T[Aib][Phe(4-Cl)]CK[Cit][Aib]MC[Tle]T-NH2; disulfide 4-9) the Kd ([1]; SPR, single cycle kinetic, category) was < 12.6 nM.

`CC(C)C[C@H](NC(=O)[C@@H]1CSSC[C@H](NC(=O)[C@H](Cc2ccccc2)NC(=O)[C@H](C)NC(=O)[C@@H](NC(=O)CCC(=O)NCCCOCCOCCOCCCNC(=O)CN2CCN(CC(=O)O)CCN(CC(=O)O)CCN(CC(=O)O)CC2)[C@@H](C)O)C(=O)N[C@@H](CCCCN)C(=O)N[C@@H](CCCNC(=N)N)C(=O)N[C@@H](C)C(=O)N[C@@H](CC(N)=O)C(=O)N1)C(=O)N[C@H](C(=O)N[C@@H](CC(=O)O)C(N)=O)[C@@H](C)O` [PSM-0251, DOTA-Ttds-Thr-Ala-Phe-[Cys-Lys-Arg-Ala-Asn-Cys]-Leu-Thr-Asp-NH2] ({X3-Suc}-TAFCKRANCLTD-NH2; disulfide 4-9) gave an IC50 ([2]; FACS binding, competition with 50 nM PSM-0183, category) of 200 to 1260 nM.

`C[C@@H](O)[C@H](NC(=O)CCC(=O)NCCCOCCOCCOCCCNC(=O)CCC(=O)NCCCOCCOCCOCCCNC(=O)CCCCCn1nnc2c1-c1ccccc1CN(C(=O)CCNC(=O)c1ccc(-c3c4ccc(=N)c(S(=O)(=O)O)c-4oc4c(S(=O)(=O)O)c(N)ccc34)c(C(=O)O)c1)c1ccccc1-2)C(=O)NC(C)(C)C(=O)N[C@@H](Cc1ccccc1)C(=O)N[C@H]1CSSC[C@@H](C(=O)N[C@H](C(=O)N[C@H](C(=O)N[C@@H](CC(=O)O)C(N)=O)[C@@H](C)O)C(C)(C)C)NC(=O)[C@H](CC(N)=O)NC(=O)C(C)(C)NC(=O)[C@H](CCCNC(=N)N)NC(=O)[C@H](CCCCN)NC1=O` [PSM-0272, AF488Ahx-Ttds-Ttds-Thr-Aib-Phe-[Cys-Lys-Arg-Aib-Asn-Cys]-Tle-Thr-Asp-NH2] ({X17-Suc}-T[Aib]FCKR[Aib]NC[Tle]TD-NH2; disulfide 4-9) was tested, and the Kd ([1]; PSMA SPR assay, pKD category) was < 12.6 nM.

With `CNCCCC[C@@H]1NC(=O)[C@@H](NC(=O)[C@H](Cc2ccc(Cl)cc2)NC(=O)C(C)(C)NC(=O)[C@@H](NC(=O)CC2CCN(C(=O)CCCC(=O)Nc3cc(CN4CCOCCOCCN(Cc5cccc(C(=O)O)n5)CCOCCOCC4)nc(C(=O)O)c3)CC2)[C@@H](C)O)CSSC[C@@H](C(=O)N[C@H](C(=O)N[C@H](C(N)=O)[C@@H](C)O)C(C)(C)C)NC(=O)[C@H](CC(N)=O)NC(=O)C(C)(C)NC(=O)[C@H](CCCNC(=N)NC)NC1=O` [PSM-0515, Macropa-Cmp-Thr-Aib-Pcf-[Cys-Lys(Me)-Arg(Me)-Aib-Asn-Cys]-Tle-Thr-NH2] ({X18-Glutaryl}-[X1]T[Aib][Phe(4-Cl)]C[Lys(Me)][Arg(Me)][Aib]NC[Tle]T-NH2; disulfide 5-10) the IC50 ([2]; pIC50 category of FACS binding) was < 200 nM.

For `CNCCCC[C@@H]1NC(=O)[C@@H](NC(=O)[C@H](Cc2ccc(Cl)cc2)NC(=O)C(C)(C)NC(=O)[C@@H](NC(=O)CC2CCN(C(=O)CN3CCN(CC(=O)O)CCN(CC(=O)O)CCN(CC(=O)O)CC3)CC2)[C@@H](C)O)CSSC[C@@H](C(=O)N[C@H](C(=O)N[C@H](C(N)=O)[C@@H](C)O)C(C)(C)C)NC(=O)[C@H](CC(N)=O)NC(=O)C(C)(C)NC(=O)[C@H](CCCN(C)C(=N)N)NC1=O` [PSM-0592, DOTA-Cmp-Thr-Aib-Pcf-[Cys-Lys(Me)-RMe1-Aib-Asn-Cys]-Tle-Thr-NH2] ({DOTA}-[X1]T[Aib][Phe(4-Cl)]C[Lys(Me)][X20][Aib]NC[Tle]T-NH2; disulfide 5-10), the IC50 ([2]; FACS binding, category) was < 200 nM.

Source: US20260083865A1, “PROSTATE SPECIFIC MEMBRANE ANTIGEN (PSMA) LIGANDS AND USE THEREOF” (priority 2022, published 2026)
